In PMC6301270 (MedChemComm, 2018):
“Also recorded” adds a separate entry of the source. Like-named read-outs stand apart in the source and are kept apart here.

What was measured:
[1] = test system: T.b. brucei (strain 427) bloodstream form parasites; test: Trypanosoma brucei assay, dose–response (this study); assay type: cell-based; settings: for IC50: Trypanosoma brucei; for Selectivity index: calculated as IC50(HeLa)/IC50(T.bb)
[2] = test system: T.b. brucei (strain 427) bloodstream form parasites; test: T.b. brucei single concentration screen (10 μM); settings: for viability at 10 µM: Trypanosoma brucei, read-out: T.b.brucei % viability (10 µM); for T.b.brucei % viability (10 µM): single concentration 10 µM, % parasite viability relative to non-treated parasites
[3] = test system: HeLa cells; test: HeLa cell assay (cytotoxicity); assay type: cell-based; settings: Homo sapiens, HeLa cells, 48 hours, resazurin, read-out: HeLa IC50
Experimental: HeLa cells were cultured in DMEM medium supplemented with 10% fetal bovine serum and antibiotics (penicillin/streptomycin/amphotericin B) at 37 °C in a 5% CO2 incubator. On the day prior to compound addition, cells were plated in 96-well plates at 2 × 10^4 cells per well. Compounds were added to the cells in 3-fold serial dilutions and incubation at 37 °C in a 5% CO2 incubator continued for 48 hours. Twenty μl resazurin reagent (0.5 mM resazurin in phosphate-buffered saline) was added to each well and, after a 2-hour incubation, fluorescence (Exc560/Em590) was measured in a plate reader. Percentage cell viability in drug-treated wells was calculated from the fluorescent readings obtained relative to those in wells containing control, untreated cells. Plots of % cell viability vs. log[compound] were used to determine IC50 values by non-linear regression analysis using GraphPad Prism.

[4] = test system: T.b. brucei; parameters: method as in https://www.pathogenbox.org/; settings: Table 1, kinetoplastid category; ref https://www.pathogenbox.org/; read-out: T. brucei brucei IC50 (μM) Pathogen Box; cited from earlier work
[5] = Table 1, kinetoplastid category, 48 hours at 37 °C, resazurin, read-out: T. brucei brucei IC50 (μM) This study
[6] = Table 2, remaining Pathogen Box, 48 hours at 37 °C, resazurin, read-out: T. brucei brucei IC50 (μM) This study
[7] = pIC50 values (M), read-out: pIC50 (T.b. brucei), this study (converted)

| Compound | IC50 [1, 5] [µM] | viability at 10 µM [2] [%] | IC50 ([3]; Table 1) [µM] | IC50 [4] [µM] | T.b.brucei % viability (10 µM) [2] | T.b. brucei inhibition in words, this study [1] | IC50 [1, 6] [µM] | IC50 [1, 7] [µM] | IC50 ([3]; Table 2) [µM] | Selectivity index [1] |
| --- | --- | --- | --- | --- | --- | --- | --- | --- | --- | --- |
| O=C(Nc1ccc(F)c(-c2nc3cc(-c4ccccc4)cnc3[nH]2)c1)N1CCCC1 [Compound 2, FC1=C(C=C(NC(=O)N2CCCC2)C=C1)C1=NC2=CC(=CN=C2N1)C1=CC=CC=C1] | 0.049 | 2 | 0.8 | < 0.13 | – | – | – | – | – | – |
| O=C(Nc1ccc2c(c1)B(O)OC2)c1ccccc1C(F)(F)F [Compound 3, OB1OCc2ccc(NC(=O)c3ccccc3C(F)(F)F)cc12] | 0.14 | 0 | > 25 | 0.15 | – | – | – | – | – | – |
| CCc1ccccc1-n1c(C)cn2c3c(=O)n(C(C(=O)OC)C(C)C)c(=O)n(C)c3nc12 (stereo not shown) [Compound 4, CCc1ccccc1n2c(C)cn3c4C(=O)N(C(C(C)C)C(=O)OC)C(=O)N(C)c4nc23] | 0.03 | 0 | > 25 | < 0.13 | – | – | – | – | – | – |
| Cc1ncc(-c2ccnc(Nc3ccc(S(C)(=O)=O)cc3)n2)n1C(C)C [Compound 6, CC(C)n1c(C)ncc1c2ccnc(Nc3ccc(cc3)S(=O)(=O)C)n2] | 0.084 | 2.2 | 1.2 | 0.26 | – | – | – | – | – | – |
| CNC(=O)c1nn(C)c2c1C(C)(C)Cc1cnc(Nc3ccc(N4CCN(C)CC4)cc3)nc1-2 [Compound 7, CNC(=O)c1nn(C)c2c3nc(Nc4ccc(cc4)N5CCN(C)CC5)ncc3CC(C)(C)c12] | 0.048 | 0.62 | 4 | < 0.13 | – | – | – | – | – | – |
| O=C(NCc1nnc2n1CCCCC2)c1ccc(-c2ccc(F)cc2)o1 [Compound 8, Fc1ccc(cc1)c2oc(cc2)C(=O)NCc3nnc4CCCCCn34] | 0.11 | 1.3 | > 25 | 0.1 | – | – | – | – | – | – |
| NCCN(C(=O)c1ccc(Cl)cc1Cl)c1ccc(OCc2ccc(Cl)cc2)cc1 [Compound 9, NCCN(C(=O)c1ccc(Cl)cc1Cl)c2ccc(OCc3ccc(Cl)cc3)cc2] | 0.49 | 4 | 7.5 | < 0.13 | – | – | – | – | – | – |
| N=C(N)c1ccc(-c2cc(-c3ccccc3)on2)cc1 [Compound 26, NC(=N)c1ccc(cc1)c2cc(on2)c3ccccc3] | – | 14 | – | 4.06 | did not sufficiently reduce cell viability | – | – | – | – | – |
| CCN(CC)S(=O)(=O)c1ccc(C(=O)Nc2cc(C)nn2-c2nc(C)c(C)c(=O)[nH]2)cc1 [Compound 27, CC1=C(C)C(NC(N2N=C(C)C=C2NC(C3=CC=C(S(=O)(N(CC)CC)=O)C=C3)=O)=N1)=O] | – | 58 | – | 5.3 | did not sufficiently reduce cell viability | – | – | – | – | – |
| N=C(N)Nc1ccc(-c2ccc(-c3ccc(NC(=N)N)cc3Cl)o2)c(Cl)c1 [Compound 32, NC(=N)Nc1ccc(c(Cl)c1)c2oc(cc2)c3ccc(NC(=N)N)cc3Cl] | – | 17 | – | 1.03 | did not sufficiently reduce cell viability | – | – | – | – | – |
| c1ccc(-c2nc(NC3CCCCC3)cc(C3CC3)n2)nc1 [Compound 35, C1CCC(CC1)Nc2cc(nc(n2)c3ccccn3)C4CC4] | – | 2 | – | – | – | sub-micromolar range; also recorded: activity in the nanomolar range | 0.83 | < 1 | > 25 | – |
| Cc1ccc2[nH]c(C3CCCNC3)c(-c3ccncc3)c2c1 (stereo not shown) [Compound 36, Cc1ccc2[nH]c(C3CCCNC3)c(c4ccncc4)c2c1] | – | 1 | – | – | – | – | 2.2 | – | 8.9 | 4.0 |
| CCOC(=O)c1c(NC(=O)c2c(F)c(F)c(F)c(F)c2F)sc(C(N)=O)c1C [Compound 37, CCOC(=O)c1c(C)c(sc1NC(=O)c2c(F)c(F)c(F)c(F)c2F)C(=O)N] | – | 7 | – | – | – | – | 11 | – | > 25 | > 2.2 |
| COC(=O)c1c(NC(=O)c2c(F)c(F)c(F)c(F)c2F)sc2c1CCCCC2 [Compound 38, COC(=O)c1c2CCCCCc2sc1NC(=O)c3c(F)c(F)c(F)c(F)c3F] | – | 7 | – | – | – | – | 11 | – | > 25 | > 2.2 |
| O=C(Nc1nc(-c2ccccn2)cs1)c1cncn1-c1ccccc1 [Compound 41, O=C(Nc1nc(cs1)c2ccccn2)c3cncn3c4ccccc4] | – | 1 | – | – | – | – | 1.1 | – | 5.1 | 4.6 |
| CC(C)=CCC/C(C)=C\CNCCNC1C2CC3CC(C2)CC1C3 (stereo not shown) [Compound 42, CC(=CCC\C(=C/CNCCNC1C2CC3CC(CC1C3)C2)\C)C] | – | 2 | – | – | – | – | 2.3 | – | 15 | 6.5 |

| Compound | IC50 [1, 5] [µM] | viability at 10 µM [2] [%] | IC50 ([3]; Table 1) [µM] | IC50 [4] [µM] | T.b.brucei % viability (10 µM) [2] | T.b. brucei inhibition in words, this study [1] | IC50 [1, 6] [µM] | IC50 [1, 7] [µM] | IC50 ([3]; Table 2) [µM] | Selectivity index [1] |
| --- | --- | --- | --- | --- | --- | --- | --- | --- | --- | --- |
| COc1cccc(-c2nc3c(N4CCCC4)cccc3n2CC2CCCN2)n1 (stereo not shown) [Compound 44, COc1cccc(n1)c2nc3c(cccc3n2CC4CCCN4)N5CCCC5] | – | 4 | – | – | – | – | 4.2 | – | 22 | 5.2 |
| Cc1cnc(N2CCN[C@@H](Cc3ccccc3)C2)nc1Oc1ccc(-n2ccnc2)cc1 [Compound 45, Cc1cnc(nc1Oc2ccc(cc2)n3ccnc3)N4CCN[C@@H](Cc5ccccc5)C4] | – | 10 | – | – | – | – | 5.1 | – | > 25 | > 4.9 |
| COc1ccc2nccc(NC(=O)C3CCN(CCc4ccc(Cl)cc4)CC3)c2n1 [Compound 47, COc1ccc2nccc(NC(=O)C3CCN(CCc4ccc(Cl)cc4)CC3)c2n1] | – | 7 | – | – | – | – | 29 | – | > 25 | – |
| COc1ccc(OC)c(NCc2ccc3nc(N)nc(N)c3c2Cl)c1 [Compound 48, COc1ccc(OC)c(NCc2ccc3nc(N)nc(N)c3c2Cl)c1] | – | 12 | – | – | – | – | 1.2 | – | > 25 | > 21 |
| Cc1cc(C2=NOC(c3cc(Cl)c(F)c(Cl)c3)(C(F)(F)F)C2)ccc1C(=O)NCc1ccc2c(c1)C(C)(C)OB2O (stereo not shown) [Compound 49, Cc1cc(ccc1C(=O)NCc2ccc3B(O)OC(C)(C)c3c2)C4=NOC(C4)(c5cc(Cl)c(F)c(Cl)c5)C(F)(F)F] | – | 1 | – | – | – | – | 1.2 | – | 10 | 8.3 |
| CC(C)n1nc(-c2cc3c(Cl)cccc3[nH]2)c2c(N)ncnc21 [Compound 50, CC(C)n1nc(-c2cc3c(Cl)cccc3[nH]2)c2c(N)ncnc12] | – | 4 | – | – | – | – | 4.3 | – | > 25 | > 5.8 |
| CN(C)c1cc(NC(=O)Nc2ccccc2)c2ccccc2n1 [Compound 52, CN(C)c1cc(NC(=O)Nc2ccccc2)c3ccccc3n1] | – | 1 | – | – | – | – | 4.7 | – | > 25 | > 5.3 |
| Cc1ccc2c(c1C)NC(=O)C21NN=C(c2ccccc2)S1 (stereo not shown) [Compound 54, Cc1ccc2c(NC(=O)C23NN=C(S3)c4ccccc4)c1C] | – | 3 | – | – | – | sub-micromolar range | 1 | < 1 | 6.6 | 6.6 |
| CC(C)C(C(=O)Nc1ccc(S(=O)(=O)N(C)C)cc1)c1ccc(Cl)cc1 (stereo not shown) [Compound 55, CC(C)C(C(=O)Nc1ccc(cc1)S(=O)(=O)N(C)C)c2ccc(Cl)cc2] | – | 8 | – | – | – | – | 6.5 | – | 12 | 1.8 |
| CN1CCC(NCc2cccc(-c3ccc(S(=O)(=O)NCc4ccccc4)cc3)c2)CC1 [Compound 56, CN1CCC(CC1)NCc2cccc(c2)c3ccc(cc3)S(=O)(=O)NCc4ccccc4] | – | 2 | – | – | – | sub-micromolar range; also recorded: activity in the nanomolar range | 0.22 | < 1 | 13 | – |
| Nc1nccc2ccc(-c3ccc4nccn4c3)cc12 [Compound 57, Nc1nccc2ccc(cc12)c3ccc4nccn4c3] | – | 3 | – | – | – | – | 1.2 | – | 5.4 | 4.5 |
| OCCc1ccc(Nc2nccc(-c3nnc4ccccn34)n2)cc1 [Compound 58, OCCc1ccc(Nc2nccc(n2)c3nnc4ccccn34)cc1] | – | 11 | – | – | – | – | 1.5 | – | > 25 | > 17 |
| CCCn1c(NC(=O)c2ccc3ccccc3n2)nc2ccccc21 [Compound 59, CCCn1c(NC(=O)c2ccc3ccccc3n2)nc4ccccc14] | – | 2 | – | – | – | – | 7.1 | – | > 25 | > 3.5 |
| Oc1c(I)cc(I)c2cccnc12 [Compound 60, Oc1c(I)cc(I)c2cccnc12] | – | 1 | – | – | – | – | 2 | – | > 25 | > 13 |
| CS(=O)(=O)c1ccc(C(=O)N(CC2CCCO2)c2nc3ccccc3s2)cc1[N+](=O)[O-] (stereo not shown) [Compound 61, CS(=O)(=O)c1ccc(cc1[N+](=O)[O-])C(=O)N(CC2CCCO2)c3nc4ccccc4s3] | – | 0 | – | – | – | – | 11 | – | > 25 | > 2.3 |
